# Activity calls are given as the source filed them.
# What was measured:
# [1] = molecular target: T1, Coagulation factor XII (Homo sapiens, UniProt P00748); type: functional;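 note: activated factor XIIa alpha cleaving a fluorogenic AMC peptide substrate; inhibitor potency from loss of enzyme activity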
# T1 sequence (P00748 whole entry): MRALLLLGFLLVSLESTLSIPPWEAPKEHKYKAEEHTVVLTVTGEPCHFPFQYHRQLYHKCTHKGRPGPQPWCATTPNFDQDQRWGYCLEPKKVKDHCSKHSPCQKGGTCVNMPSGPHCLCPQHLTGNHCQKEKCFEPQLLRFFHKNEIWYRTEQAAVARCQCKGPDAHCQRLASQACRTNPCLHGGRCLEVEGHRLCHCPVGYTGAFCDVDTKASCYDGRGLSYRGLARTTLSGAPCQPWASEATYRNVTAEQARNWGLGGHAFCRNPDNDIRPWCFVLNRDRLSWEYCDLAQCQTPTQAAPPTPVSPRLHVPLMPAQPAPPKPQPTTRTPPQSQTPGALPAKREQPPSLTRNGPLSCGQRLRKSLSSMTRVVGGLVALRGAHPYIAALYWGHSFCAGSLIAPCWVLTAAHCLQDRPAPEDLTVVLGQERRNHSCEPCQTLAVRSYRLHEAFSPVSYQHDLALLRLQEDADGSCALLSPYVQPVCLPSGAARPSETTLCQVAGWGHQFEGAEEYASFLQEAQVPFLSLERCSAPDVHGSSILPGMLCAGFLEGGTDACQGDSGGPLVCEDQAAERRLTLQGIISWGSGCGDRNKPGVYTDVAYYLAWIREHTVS
# [2] = molecular target: Paired box protein Pax-8 (Homo sapiens, UniProt Q06710); assay: inhibitors of PAX8-driven TPO luciferase reporter, dose response, RMG-I cells, cherry-pick (AID 687027); type: functional, cell-based;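 note: luciferase reporter driven by Pax8 target thyroperoxidase promoter measured by SteadyGlo luminescence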
# Chain of Paired box protein Pax-8 (Q06710 whole entry): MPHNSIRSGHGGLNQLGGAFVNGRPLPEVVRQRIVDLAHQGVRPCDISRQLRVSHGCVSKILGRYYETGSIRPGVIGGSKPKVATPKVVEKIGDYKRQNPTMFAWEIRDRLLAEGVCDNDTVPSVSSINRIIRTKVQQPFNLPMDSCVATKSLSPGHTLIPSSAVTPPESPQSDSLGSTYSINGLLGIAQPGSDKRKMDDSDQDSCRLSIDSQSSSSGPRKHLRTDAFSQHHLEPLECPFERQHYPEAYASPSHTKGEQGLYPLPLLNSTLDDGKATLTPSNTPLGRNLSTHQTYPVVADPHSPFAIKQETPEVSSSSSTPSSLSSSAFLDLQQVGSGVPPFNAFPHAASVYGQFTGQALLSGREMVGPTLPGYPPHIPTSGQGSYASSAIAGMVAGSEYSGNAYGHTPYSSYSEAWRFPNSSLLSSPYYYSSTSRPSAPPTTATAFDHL
# [3] = molecular target: T2, Caspase-6 (Homo sapiens, UniProt P55212); assay: human caspase-6 inhibitors, dose response, biochemical, VEID-R110 fluorescence, cherry-pick (AID 720632)
# T2 sequence (P55212 whole entry): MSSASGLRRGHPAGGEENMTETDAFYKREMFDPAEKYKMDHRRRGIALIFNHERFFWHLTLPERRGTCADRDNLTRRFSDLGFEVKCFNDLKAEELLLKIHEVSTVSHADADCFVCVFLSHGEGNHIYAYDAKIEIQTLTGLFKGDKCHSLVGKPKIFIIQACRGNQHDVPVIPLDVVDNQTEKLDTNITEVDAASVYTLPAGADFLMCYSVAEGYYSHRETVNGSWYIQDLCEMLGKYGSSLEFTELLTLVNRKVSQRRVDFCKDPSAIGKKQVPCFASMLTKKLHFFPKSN
# [4] = molecular target: T3, Microphthalmia-associated transcription factor (Homo sapiens, UniProt O75030); assay: TRPM1 promoter luciferase signal decrease, dose response, MITF inhibitor project, cell-based, SK-MEL-5, cherry-picked, set 3 (AID 493073); type: functional
# T3 sequence (O75030 whole entry): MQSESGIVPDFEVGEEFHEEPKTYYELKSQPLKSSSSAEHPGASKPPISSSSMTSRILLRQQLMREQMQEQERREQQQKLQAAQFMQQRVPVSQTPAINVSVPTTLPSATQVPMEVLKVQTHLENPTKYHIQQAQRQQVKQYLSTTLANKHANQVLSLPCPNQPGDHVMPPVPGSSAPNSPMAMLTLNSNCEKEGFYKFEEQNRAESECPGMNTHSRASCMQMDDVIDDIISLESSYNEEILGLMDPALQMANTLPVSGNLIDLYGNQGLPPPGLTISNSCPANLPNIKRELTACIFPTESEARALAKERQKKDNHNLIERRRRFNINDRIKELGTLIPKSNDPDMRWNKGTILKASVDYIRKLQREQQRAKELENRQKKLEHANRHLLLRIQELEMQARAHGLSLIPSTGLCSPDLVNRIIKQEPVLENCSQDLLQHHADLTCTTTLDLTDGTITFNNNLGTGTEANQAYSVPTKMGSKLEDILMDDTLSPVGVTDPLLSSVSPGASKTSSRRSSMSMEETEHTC
# [5] = THP-1 cell cytotoxicity, dose response, cytotoxicity control for non-replicating M. tuberculosis project (AID 489025); type: functional
# [6] = microbe, parasite or virus in culture; type: functional; settings: Mycobacterium tuberculosis
# [7] = cells; type: functional
# [8] = Vero E6 cell cytotoxicity, dose response, cytotoxicity control for non-replicating M. tuberculosis project, secondary assay (AID 492998); type: functional, VeroE6; settings: Vero C1008
# [9] = system: HEK293; assay: cells; settings: Homo sapiens
# [10] = system: HEK293; assay: cells; settings: Homo sapiens; remark: listed apart in the source
Structure (SMILES),IC50 [1],CC50 [5],IC50 [7],CC50 [8],further results
O=C1c2oc3ccccc3c(=O)c2C(c2cccc(F)c2)N1CCCO (centres undefined),> 50 µM (inactive),–,–,–,–
CC(=O)N1CCc2c(sc(NC(=O)c3ccc([N+](=O)[O-])o3)c2C#N)C1,–,–,–,–,AC50 [2]: 2.71 µM (active); AC50 [3]: 26.6 µM (active); AC50 [4]: 2.22 µM (active)
CSc1ccc(C(=O)C2CCCN(C(=O)c3ccc4c(c3)no[n+]4[O-])C2)cc1 (centres undefined),–,39.4 µM (active),1.5 µM (active),13.7 µM (active),CC50 [6]: 10.8 µM (active)
CCOC(=O)CSc1nc(N)c(C#N)c(-c2ccc(OCC)cc2)c1C#N,–,–,–,–,EC50 [9]: > 59.6 µM (inactive); EC50 [10]: > 59.6 µM (inactive)
O=C(Nc1cc(=O)[nH]c2ncnn12)c1ccco1,> 50 µM (inactive),–,–,–,–
O=C(NNC(=O)c1cnccn1)c1ccc(Cl)c(Cl)c1,–,14.6 µM (active),6.17 µM (active),12.5 µM (active),–

# Reference: ChEMBL document CHEMBL1201862, “PubChem BioAssay data set” (2004)
